Measured values reported in PMC10584170, “Machine learning-based phenotypic imaging to characterise the targetable biology of Plasmodium falciparum male gametocytes for the development of transmission-blocking antimalarials” (PLOS Pathogens, 2023).

Experiments:
[1] = system: P. falciparum female gametocytes; test: P. falciparum Dual Gamete Formation Assay (PfDGFA), female readout (Pfs25-positive female gametes); type: cell-based, Plasmodium falciparum NF54; settings: for Average inhibition female (%): average of replicates; for % inhibition female (individual replicates) R1: replicate R1; for % inhibition female (individual replicates) R3: replicate R3; for % inhibition female (individual replicates) R4: replicate R4
In short: (§1)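 Day-14 NF54 gametocytes were incubated with compound for 24 h at 37°C under 1% O2/3% CO2/96% N2. Gametogenesis was triggered with ookinete medium (0.1 μM xanthurenic acid) plus Cy3-anti-Pfs25, and exflagellation was imaged by brightfield after cooling to 4°C then 28°C. Females were imaged by Pfs25 fluorescence 24 h later at 28°C.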

[2] = system: P. falciparum male gametocytes; test: P. falciparum Dual Gamete Formation Assay (PfDGFA), male readout (exflagellation); type: cell-based, Plasmodium falciparum NF54; settings: for Average inhibition male (%): average of replicates; for % inhibition male (individual replicates) R1: replicate R1; for % inhibition male (individual replicates) R3: replicate R3; for % inhibition male (individual replicates) R4: replicate R4; for Activity: hit = >50% inhibition in male or female readout in at least 3 replicates, 0 = no class assigned
In short: as §1

[3] = 2µM, 24h preincubation with gametocytes prior to induction of gametogenesis
[4] = 2µM, 24h preincubation, number of replicates with >50% inhibition in the female readout
[5] = 2µM, 24h preincubation, number of replicates with >50% inhibition in the male readout
[6] = 2µM, 24h preincubation, hits selected on >50% inhibition in the female readout across replicates
[7] = 2µM, 24h preincubation, hits selected on >50% inhibition in the male readout across replicates
[8] = PfDGFA at 2µM, 24h preincubation
[9] = PfDGFA at 2µM, 24h preincubation with gametocytes
[10] = number of replicates with >50% inhibition in the female readout, 2µM
[11] = number of replicates with >50% inhibition in the male readout, 2µM
[12] = 2µM, 24h preincubation with gametocytes
[13] = PfDGFA at 2µM, 24h preincubation with gametocytes prior to induction of gametogenesis

| Compound | Average inhibition female (%) [1, 3] [%] | % inhibition female (individual replicates) R1 [1, 3] [%] | % inhibition female (individual replicates) R3 [1, 3] [%] | % inhibition female (individual replicates) R4 [1, 3] [%] | HitlevelF [1, 4] | Average inhibition male (%) [2, 3] [%] | % inhibition male (individual replicates) R1 [2, 3] [%] | % inhibition male (individual replicates) R3 [2, 3] [%] | % inhibition male (individual replicates) R4 [2, 3] [%] | HitlevelM [2, 5] | also measured |
| --- | --- | --- | --- | --- | --- | --- | --- | --- | --- | --- | --- |
| Cl.c1ccc2c(c1)cc(CNCCCN1CCN(CCCNCc3cc4ccccc4c4ccccc34)CC1)c1ccccc12 [TCMDC-137914] | 20.8 | 24.6 | 15.0 | 14.7 | 0 | 5.2 | 10.5 | -10.9 | 23.6 | 0 |  |
| CCc1nc(N)nc(N)c1CCCOc1ccccc1Cl.Cl [TCMDC-137928] | 14.6 | 20.2 | 26.6 | 2.3 |  | -0.378 | 19.6 | 1.0 | -29.1 |  | HitlevelF [1, 6]: 0; HitlevelM [2, 7]: 0; Activity [2, 8]: 0 |
| CCOc1cc2ccccc2cc1CNCCCCCCNCc1cc2ccccc2cc1OCC.CS(=O)(=O)O [TCMDC-137940] | 10.1 | 11.4 | 8.9 | 5.4 |  | -10.2 | -8.8 | -9.1 | -15.1 |  | HitlevelF [1, 6]: 0; HitlevelM [2, 7]: 0; Activity [2, 8]: 0 |
| CCOc1c(CNCCCCCCNCc2ccc3ccccc3c2OCC)ccc2ccccc12.CS(=O)(=O)O [TCMDC-137942] |  |  |  |  |  |  |  |  |  |  | Average inhibition female (%) [1, 9]: 35.4%; % inhibition female (individual replicates) R1 [1, 9]: 30.1%; % inhibition female (individual replicates) R3 [1, 9]: 19.1%; % inhibition female (individual replicates) R4 [1, 9]: 50.5%; HitlevelF [1, 10]: 1; Average inhibition male (%) [2, 9]: 82.7%; % inhibition male (individual replicates) R1 [2, 9]: 76.8%; % inhibition male (individual replicates) R3 [2, 9]: 64.7%; % inhibition male (individual replicates) R4 [2, 9]: 98.9%; HitlevelM [2, 11]: 4 |
| CCCc1cc2c3c(N)nc(N)nc3ccc2n1CC [TCMDC-137946] |  |  |  |  |  |  |  |  |  |  | Average inhibition female (%) [1, 12]: 82.6%; % inhibition female (individual replicates) R1 [1, 12]: 82.8%; % inhibition female (individual replicates) R3 [1, 12]: 88.8%; % inhibition female (individual replicates) R4 [1, 12]: 84.8%; Average inhibition male (%) [2, 12]: 95.8%; % inhibition male (individual replicates) R1 [2, 12]: 97.3%; % inhibition male (individual replicates) R3 [2, 12]: 96.2%; % inhibition male (individual replicates) R4 [2, 12]: 104.1% |
| CCCC(CC)n1ccc2c3c(N)nc(N)nc3ccc21.CS(=O)(=O)O (stereo not shown) [TCMDC-137948] |  |  |  |  |  |  |  |  |  |  | % inhibition female (individual replicates) R1 [1, 13]: -1.7%; % inhibition female (individual replicates) R3 [1, 13]: -3.2%; % inhibition female (individual replicates) R4 [1, 13]: -13.6%; Average inhibition female (%) [1, 8]: -8.1%; % inhibition male (individual replicates) R1 [2, 13]: 21.2%; % inhibition male (individual replicates) R3 [2, 13]: 21.4%; % inhibition male (individual replicates) R4 [2, 13]: 12.8%; Average inhibition male (%) [2, 8]: 22.4% |
| CCCC(CCC)n1ccc2c3c(N)nc(N)nc3ccc21.Cl [TCMDC-137949] |  |  |  |  |  |  |  |  |  |  | % inhibition female (individual replicates) R1 [1, 13]: 4.6%; % inhibition female (individual replicates) R3 [1, 13]: 19.1%; % inhibition female (individual replicates) R4 [1, 13]: -10.8%; Average inhibition female (%) [1, 8]: 3.5%; % inhibition male (individual replicates) R1 [2, 13]: 35.5%; % inhibition male (individual replicates) R3 [2, 13]: 0.4%; % inhibition male (individual replicates) R4 [2, 13]: -40.5%; Average inhibition male (%) [2, 8]: 0.9% |
| CCCOc1c(CCNCCCCNCCc2ccc3ccccc3c2OCCC)ccc2ccccc12.CS(=O)(=O)O [TCMDC-137950] |  |  |  |  |  |  |  |  |  |  | Average inhibition female (%) [1, 9]: 65.5%; % inhibition female (individual replicates) R1 [1, 9]: 72.1%; % inhibition female (individual replicates) R3 [1, 9]: 62.6%; % inhibition female (individual replicates) R4 [1, 9]: 79.5%; HitlevelF [1, 10]: 3; Average inhibition male (%) [2, 9]: 74.1%; % inhibition male (individual replicates) R1 [2, 9]: 87.0%; % inhibition male (individual replicates) R3 [2, 9]: 74.0%; % inhibition male (individual replicates) R4 [2, 9]: 95.7%; HitlevelM [2, 11]: 3 |
| COc1cc2ccccc2cc1CNCCCCCCNCc1cc2ccccc2cc1OC.CS(=O)(=O)O [TCMDC-137955] | 14.7 | 13.5 | -9.9 | 5.4 | 0 | 53.1 | 58.5 | -7.9 | 78.9 | 3 |  |
| Cc1cc2c3c(N)nc(N)nc3ccc2n1C [TCMDC-137957] | 31.9 | 39.3 | 32.6 | 34.2 | 0 | 2.4 | -0.85 | -3.6 | 3.4 | 0 |  |
| Nc1nc(N)c2c(ccc3c2ccn3CCCCO)n1 [TCMDC-137959] |  |  |  |  |  |  |  |  |  |  | % inhibition female (individual replicates) R1 [1, 13]: -0.01%; % inhibition female (individual replicates) R3 [1, 13]: -3.7%; % inhibition female (individual replicates) R4 [1, 13]: 2.0%; Average inhibition female (%) [1, 8]: -0.9%; % inhibition male (individual replicates) R1 [2, 13]: 21.0%; % inhibition male (individual replicates) R4 [2, 13]: -1.8%; Average inhibition male (%) [2, 8]: 15.1% |
| Nc1nc(N)c2c(ccc3nn(C4CCCC4)cc32)n1 [TCMDC-137960] | 4.4 | 5.0 | 5.0 | 9.1 |  | -1.6 | 13.2 |  | -27.5 |  | HitlevelF [1, 6]: 0; HitlevelM [2, 7]: 0; Activity [2, 8]: 0 |
| CCCCCCOc1ccc2ccccc2c1CNCCCCCCNCc1c(OCCCCCC)ccc2ccccc12.CS(=O)(=O)O [TCMDC-137963] | 30.9 | 24.3 | 23.7 | 29.4 | 0 | 26.5 | 35.9 | 2.2 | 25.6 | 0 |  |
| CC(C)COc1ccc2ccccc2c1CNCCCCCCNCc1c(OCC(C)C)ccc2ccccc12.CS(=O)(=O)O [TCMDC-137972] | 43.0 | 37.9 | 36.7 | 62.6 | 1 | 47.1 | 41.0 | 61.0 | 84.0 | 2 |  |
